Laboratory results as given in patent US11673869B2, “4-oxazolidinone antimicrobial agents” (NORTH CAROLINA STATE UNIVERSITY, priority 2016, dated 2023).
Converted amounts (≈) assume the structure as drawn.

How the values were obtained:
S. aureus = experiment: Broth microdilution MIC determination, S. aureus; type: cell-based, Staphylococcus aureus; conditions: minimum inhibitory concentration, recorded after 16 h, unit assumed
[1] = test system: MRSA (ATCC 33591) methicillin-resistant Staphylococcus aureus; experiment: Broth microdilution MIC determination, MRSA; type: cell-based; conditions: minimum inhibitory concentration, MRSA ATCC 33591, Mueller-Hinton broth, 37° C., recorded after 16 h; unit assumed
Protocol: (§1) Broth microdilution protocol for minimum inhibition concentration (MIC) determination. Fresh Mueller-Hinton broth (MHB) ˜3 ml, was inoculated (5×10^5 CFU mL^−1) with MRSA (ATCC 33591) methicillin-resistant Staphylococcus aureus. The resulting bacterial suspension was aliquoted (1 mL) into culture tubes and test compound (10 mM DMSO stock solution) was added to reach the final concentration of the interest. Bacteria not treated with the antimicrobial compound served as the control. Rows 2-12 of a 96-well microtiter plate were filled with remaining bacterial subcultures. The samples containing test compound were aliquoted (200 μL) into the first row wells of the microtiter plate (2 wells per compound). Row 1 wells were mixed 6-8 times and 100 μL was transferred down to row 2. Row 2 wells were mixed 6-8 times, followed by a 100 μL transfer from row 2 down to row 3. The rest of the rows of the plate were serially diluted in similar fashion. The plate was covered with sealing tape for 96-well plates (ThermoFisher) and incubated under stationary conditions at 37° C. A duplicate of the plate was prepared.
(§2) MIC values for vancomycin, linezolid, and tetracycline are included in Table 1 for purposes of comparison.

A. baumannii = experiment: Broth microdilution MIC determination, A. baumannii; type: cell-based, Acinetobacter baumannii; conditions: minimum inhibitory concentration, recorded after 16 h, unit assumed
Protocol: [The procedure below names another organism; the source lists this organism under the same test.] as §1, §2

MIC S. aureus (S. aureus) [µg/mL] | MIC MRSA [1] [µg/mL] | MIC A. baumannii (A. baumannii) [µg/mL] | Structure (SMILES)
0.5 (≈ 1.62 µM) | 0.0675 (≈ 0.218 µM) | > 128 | CCCCCCCCCC(=O)/C=C1\NC(=O)[C@H]([C@@H](C)CC)O1 [Compound 10, (S,E)-5-((S)-sec-butyl)-2-(2-oxoundecylidene)oxazolidin-4-one]
1 (≈ 3.11 µM) | 0.5 (≈ 1.56 µM) | > 50 | CCCCCCC/C(C)=C/C(=O)/C=C1\NC(=O)[C@H](CCCC)O1 [Compound 1, (S)-Lipoxazolidinone A]
16 (≈ 71 µM) | 16 (≈ 71 µM) | > 50 | CCCC[C@@H]1O/C(=C/C(=O)CCC)NC1=O [Compound 5, (S,E)-5-Butyl-2-(2-oxopentylidene)oxazolidin-4-one]
0.5 (≈ 1.62 µM) | 0.0675 (≈ 0.218 µM) | > 128 | CCCCCCCCCC(=O)/C=C1\NC(=O)[C@H](CC(C)C)O1 [Compound 9, (S,E)-5-isobutyl-2-(2-oxoundecylidene)oxazolidin-4-one]
128 (≈ 649 µM) | > 128 | – | CCCC[C@@H]1O/C(=C/C(C)=O)NC1=O [Compound 6, (S,E)-5-Butyl-2-(2-oxopropylidene)oxazolidin-4-one]
– | 0.5 (≈ 1.49 µM) | – | CC(C)[C@@H]1O/C(=C/C(=O)C(c2ccccc2)c2ccccc2)NC1=O [Compound 17, (S,E)-5-isopropyl-2-(2-oxo-3,3-diphenylpropylidene)oxazolidin-4-one]
4 (≈ 11.6 µM) | 0.5 (≈ 1.46 µM) | – | CCCCCCCCCC(=O)/C=C1\NC(=O)[C@H](Cc2ccccc2)O1 [Compound 12, (S,E)-5-benzyl-2-(2-oxoundecylidene)oxazolidin-4-one]
0.5 (≈ 1.69 µM) | 0.0338 (≈ 0.114 µM) | > 64 | CCCCCCCCCC(=O)/C=C1\NC(=O)[C@H](C(C)C)O1 [Compound 11, (S,E)-5-isopropyl-2-(2-oxoundecylidene)oxazolidin-4-one]
128 (≈ 325 µM) | 16 (≈ 40.6 µM) | – | CCCCCCCCCCCCCCCC(=O)/C=C1\NC(=O)[C@H](CCCC)O1 [Compound 7, (S,E)-5-Butyl-2-(2-oxoheptadecylidene)oxazolidin-4-one]
2 (≈ 7.11 µM) | 1 (≈ 3.55 µM) | – | CCCCCCCCCC(=O)/C=C1\NC(=O)[C@H](CC)O1 [Compound 22, (S,E)-5-ethyl-2-(2-oxoundecylidene)oxazolidin-4-one]
0.25 (≈ 0.745 µM) | 0.125 (≈ 0.373 µM) | – | CC(C)[C@@H]1O/C(=C/C(=O)Cc2ccc(-c3ccccc3)cc2)NC1=O [Compound 23, (S,E)-2-(3-([1,1′-biphenyl]-4-yl)-2-oxopropylidene)-5-isopropyloxazolidin-4-one]
0.5 (≈ 1.62 µM) | 0.0675 (≈ 0.218 µM) | – | CCCCCCCCCC(=O)/C=C1\NC(=O)[C@H](C(C)(C)C)O1 [Compound 21, (S,E)-5-(tert-butyl)-2-(2-oxoundecylidene)oxazolidin-4-one]
> 128 | > 128 | – | CC(=O)/C=C1\NC(=O)[C@H](C)O1 [Compound 20, (S,E)-5-methyl-2-(2-oxopropylidene)oxazolidin-4-one]
4 (≈ 12.4 µM) | 1 (≈ 3.11 µM) | – | CCCCCCC/C(C)=C/C(=O)/C=C1\NC(=O)[C@@H](CCCC)O1 [Compound 2, (R)-Lipoxazolidinone A]
128 (≈ 393 µM) | 64 (≈ 197 µM) | – | CCCCCCCCCC(=O)/C=C1\NC(=S)[C@H](CCCC)O1 [Compound 8, (S,E)-1-(5-butyl-4-thioxooxazolidin-2-ylidene)undecan-2-one]
2 (≈ 6.46 µM) | 0.25 (≈ 0.808 µM) | – | CCCCCCCCCC(=O)/C=C1\NC(=O)[C@H](CCCC)O1 [Compound 4, (S,E)-5-Butyl-2-(2-oxoundecylidene)oxazolidin-4-one]
4 (≈ 15.8 µM) | 2 (≈ 7.89 µM) | – | CCCCCCCCCC(=O)/C=C1\NC(=O)CO1 [Compound 13, (E)-2-(2-Oxoundecylidene)oxazolidin-4-one]
– | 16 (≈ 64.2 µM) | – | C#CCCCCC(=O)/C=C1\NC(=O)[C@H](C(C)C)O1 [Compound 19, (S,E)-5-isopropyl-2-(2-oxooct-7-yn-1-ylidene)oxazolidin-4-one]
– | 2 (≈ 7.71 µM) | – | CC(C)[C@@H]1O/C(=C/C(=O)Cc2ccccc2)NC1=O [Compound 16, (S,E)-5-isopropyl-2-(2-oxo-3-phenylpropylidene)oxazolidin-4-one]
0.5 (≈ 1.63 µM) | 0.125 (≈ 0.407 µM) | > 50 | CCCCCCC/C=C/C(=O)/C=C1\NC(=O)[C@H](CCCC)O1 [Compound 3, (S,E)-5-Butyl-2-((E)-2-oxoundec-3-en-1-ylidene)oxazolidin-4-one]
2 (≈ 6.07 µM) | 1 (≈ 3.04 µM) | > 128 | CCCCCCCCCC(=O)/C=C1\NC(=O)[C@H](c2ccccc2)O1 [Compound 15, (S,E)-2-(2-oxoundecylidene)-5-phenyloxazolidin-4-one]
1 (≈ 2.96 µM) | 0.5 (≈ 1.48 µM) | – | CC(C)[C@@H]1O/C(=C/C(=O)Cc2ccc(Br)cc2)NC1=O [Compound 24, (S,E)-2-(3-(4-bromophenyl)-2-oxopropylidene)-5-isopropyloxazolidin-4-one]
1 (≈ 3.74 µM) | 0.8 (≈ 2.99 µM) | – | CCCCCCCCCC(=O)/C=C1\NC(=O)[C@H](C)O1 [Compound 14, (S,E)-5-Methyl-2-(2-oxoundecylidene)oxazolidin-4-one]
0.5 (≈ 1.48 µM) | 1 (≈ 2.96 µM) | > 100 | CC(=O)NC[C@H]1CN(c2ccc(N3CCOCC3)c(F)c2)C(=O)O1 [linezolid, reference compound]
– | 32 (≈ 119 µM) | – | COC(=O)CCCC(=O)/C=C1\NC(=O)[C@H](C(C)C)O1 [Compound 18, methyl (S,E)-6-(5-isopropyl-4-oxooxazolidin-2-ylidene)-5-oxohexanoate]

Structure (SMILES) | MIC S. aureus (S. aureus) [µg/mL] | MIC MRSA [1] [µg/mL] | MIC A. baumannii (A. baumannii) [µg/mL]
CN[C@H](CC(C)C)C(=O)N[C@H]1C(=O)N[C@@H](CC(N)=O)C(=O)N[C@H]2C(=O)N[C@H]3C(=O)N[C@H](C(=O)N[C@H](C(=O)O)c4cc(O)cc(O)c4-c4cc3ccc4O)[C@H](O)c3ccc(c(Cl)c3)Oc3cc2cc(c3O[C@@H]2O[C@H](CO)[C@@H](O)[C@H](O)[C@H]2O[C@H]2C[C@](C)(N)[C@H](O)[C@H](C)O2)Oc2ccc(cc2Cl)[C@H]1O [vancomycin, reference compound] | 1 (≈ 0.69 µM) | 1 (≈ 0.69 µM) | > 100
CN(C)[C@@H]1C(O)=C(C(N)=O)C(=O)[C@@]2(O)C(O)=C3C(=O)c4c(O)cccc4[C@@](C)(O)[C@H]3C[C@@H]12 [tetracycline, reference compound] | 0.25 (≈ 0.563 µM) | – | 2 (≈ 4.5 µM)
